Among the data in US20250236608A1, “EGFR INHIBITORS” (Blueprint Medicines Corporation, priority 2022, published 2025) are IC50 values, retold here.

Assay [1] deals with EGFR (d746-750) (Homo sapiens (Human), UniProt P00533, DEL746-750). Nature of the assay: Biochemical EGFR inhibition assay, EGFR (d746-750). Particulars: Caliper mobility shift; 1.0 mM ATP or ATP Km; read-out: Enz EGFR_Exon19-del746-750 IC50.
Assay [2] has as its target EGFR L858R (Homo sapiens (Human), UniProt P00533, L858R). Nature of the assay: Biochemical EGFR inhibition assay, EGFR L858R. Particulars: Caliper mobility shift; 1.0 mM ATP or ATP Km; read-out: Enz EGFR_L858R IC50.
In assay [3] the target is pEGFR (Tyr1068) in PC-9 cells (Ex19Del) (Homo sapiens (Human), UniProt P00533, DEL746-750). Briefly: PC-9 pEGFR AlphaLISA assay. It is filed as cell-based. The note with it: 4 hours incubation, p-EGFR (Tyr1068) AlphaLISA, read-out: Ext pEGFR_PC-9 Ex19Del IC50. The essentials:
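Phospho-EGFR (Tyr1068) was quantified by AlphaLISA SureFire Ultra in lysates of PC-9 cells exposed for 4 h to compound (4-fold, 10-point dilutions).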

Each structure is given as a SMILES string.

Sequence of pEGFR (Tyr1068) in PC-9 cells (Ex19Del) (P00533 other isoform, or with tags, fused parts or gaps del 746-750): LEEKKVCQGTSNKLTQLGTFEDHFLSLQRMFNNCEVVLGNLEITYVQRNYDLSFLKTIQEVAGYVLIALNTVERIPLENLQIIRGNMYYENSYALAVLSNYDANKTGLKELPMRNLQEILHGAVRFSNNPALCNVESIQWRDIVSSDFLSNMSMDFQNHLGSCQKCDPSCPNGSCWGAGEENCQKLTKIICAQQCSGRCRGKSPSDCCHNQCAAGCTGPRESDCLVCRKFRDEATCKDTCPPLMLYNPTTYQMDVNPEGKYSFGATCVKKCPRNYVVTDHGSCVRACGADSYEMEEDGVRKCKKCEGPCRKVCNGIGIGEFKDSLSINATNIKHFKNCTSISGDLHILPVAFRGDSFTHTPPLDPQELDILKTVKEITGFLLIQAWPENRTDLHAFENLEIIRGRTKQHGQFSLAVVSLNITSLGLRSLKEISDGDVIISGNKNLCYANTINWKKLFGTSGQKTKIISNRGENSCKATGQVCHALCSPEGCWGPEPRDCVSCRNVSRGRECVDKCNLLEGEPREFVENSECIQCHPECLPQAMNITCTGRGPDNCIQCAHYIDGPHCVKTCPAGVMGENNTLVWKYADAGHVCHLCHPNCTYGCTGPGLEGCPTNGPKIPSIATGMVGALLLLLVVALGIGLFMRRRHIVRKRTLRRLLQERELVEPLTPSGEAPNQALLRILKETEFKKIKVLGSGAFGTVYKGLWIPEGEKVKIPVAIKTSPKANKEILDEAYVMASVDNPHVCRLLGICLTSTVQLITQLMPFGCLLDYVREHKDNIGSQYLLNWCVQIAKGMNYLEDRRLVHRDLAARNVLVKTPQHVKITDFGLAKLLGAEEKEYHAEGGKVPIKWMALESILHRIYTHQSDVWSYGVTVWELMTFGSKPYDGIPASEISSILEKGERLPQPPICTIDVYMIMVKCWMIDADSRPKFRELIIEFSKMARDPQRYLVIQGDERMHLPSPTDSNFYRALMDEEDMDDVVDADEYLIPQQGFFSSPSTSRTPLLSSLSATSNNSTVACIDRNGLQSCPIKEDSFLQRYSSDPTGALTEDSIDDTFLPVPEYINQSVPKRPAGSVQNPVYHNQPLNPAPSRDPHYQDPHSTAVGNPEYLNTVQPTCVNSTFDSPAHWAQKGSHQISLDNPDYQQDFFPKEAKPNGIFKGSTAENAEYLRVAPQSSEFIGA
Sequence of EGFR (d746-750) (P00533 other isoform, or with tags, fused parts or gaps del 1-694/del 746-750 limits assumed): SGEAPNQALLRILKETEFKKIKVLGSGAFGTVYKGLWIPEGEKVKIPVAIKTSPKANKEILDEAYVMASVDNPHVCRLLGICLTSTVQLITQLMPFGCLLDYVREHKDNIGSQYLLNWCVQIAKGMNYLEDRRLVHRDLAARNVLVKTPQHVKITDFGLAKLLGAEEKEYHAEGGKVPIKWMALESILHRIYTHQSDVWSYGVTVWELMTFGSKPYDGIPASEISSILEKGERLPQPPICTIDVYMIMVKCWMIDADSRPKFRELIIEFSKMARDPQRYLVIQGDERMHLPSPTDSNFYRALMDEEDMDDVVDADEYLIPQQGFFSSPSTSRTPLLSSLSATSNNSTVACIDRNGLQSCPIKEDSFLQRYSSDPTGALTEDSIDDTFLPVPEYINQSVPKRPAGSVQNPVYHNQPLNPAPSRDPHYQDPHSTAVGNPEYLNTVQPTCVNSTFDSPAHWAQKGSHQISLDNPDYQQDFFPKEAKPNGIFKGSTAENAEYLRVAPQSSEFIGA
Sequence of EGFR L858R (P00533 25-1210 L858R): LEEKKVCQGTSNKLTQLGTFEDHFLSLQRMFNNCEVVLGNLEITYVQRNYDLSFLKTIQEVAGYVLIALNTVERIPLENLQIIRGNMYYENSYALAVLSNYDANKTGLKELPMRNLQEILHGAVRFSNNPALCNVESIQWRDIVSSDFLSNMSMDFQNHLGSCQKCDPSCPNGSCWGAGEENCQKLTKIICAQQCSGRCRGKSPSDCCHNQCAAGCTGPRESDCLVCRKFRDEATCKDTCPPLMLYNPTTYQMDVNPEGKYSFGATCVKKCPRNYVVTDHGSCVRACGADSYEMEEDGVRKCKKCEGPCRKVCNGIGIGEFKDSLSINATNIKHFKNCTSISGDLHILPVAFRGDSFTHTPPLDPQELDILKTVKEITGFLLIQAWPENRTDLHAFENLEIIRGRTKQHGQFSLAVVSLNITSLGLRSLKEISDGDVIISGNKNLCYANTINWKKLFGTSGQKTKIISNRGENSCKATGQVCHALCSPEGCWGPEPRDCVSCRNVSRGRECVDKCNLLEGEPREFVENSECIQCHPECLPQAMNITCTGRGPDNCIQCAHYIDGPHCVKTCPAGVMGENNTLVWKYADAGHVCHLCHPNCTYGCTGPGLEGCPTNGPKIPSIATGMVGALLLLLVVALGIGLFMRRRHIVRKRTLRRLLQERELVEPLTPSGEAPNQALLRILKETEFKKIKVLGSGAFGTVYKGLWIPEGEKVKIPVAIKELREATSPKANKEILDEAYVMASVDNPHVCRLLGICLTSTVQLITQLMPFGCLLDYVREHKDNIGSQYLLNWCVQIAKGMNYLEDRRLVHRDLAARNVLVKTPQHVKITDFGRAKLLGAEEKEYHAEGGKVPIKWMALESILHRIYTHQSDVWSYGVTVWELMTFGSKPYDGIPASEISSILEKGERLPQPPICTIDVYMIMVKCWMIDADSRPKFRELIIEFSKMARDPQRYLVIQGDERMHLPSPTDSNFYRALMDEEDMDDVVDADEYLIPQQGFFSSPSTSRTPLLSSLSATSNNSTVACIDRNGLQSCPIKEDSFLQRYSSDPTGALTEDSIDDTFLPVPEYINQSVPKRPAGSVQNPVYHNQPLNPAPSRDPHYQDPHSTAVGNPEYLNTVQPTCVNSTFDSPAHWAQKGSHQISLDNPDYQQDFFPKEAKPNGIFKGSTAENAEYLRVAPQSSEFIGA

For `COc1cc2ncnc(-c3cn(C)nc3-c3ccccc3F)c2cc1NC(=O)[C@@]12C[C@@H]1CN(C)C2` (single isomer, unassigned) [Example 254, (1S,5S)—N-(4-(3-(2-fluorophenyl)-1-methyl-1H-pyrazol-4-yl)-7-methoxyquinazolin-6-yl)-3-methyl-3-azabicyclo[3.1.0]hexane-1-carboxamide or (1R,5R)—N-(4-(3-(2-fluorophenyl)-1-methyl-1H-pyrazol-4-yl)-7-methoxyquinazolin-6-yl)-3-methyl-3-azabicyclo[3.1.0]hexane-1-carboxamide], the half-inhibitory concentration (IC50) (as a rule, the concentration that inhibits the measured activity by half) in assay [1] was determined as 0.8 nM; in assay [2] it was 2.1 nM; in assay [3], 2.5 nM.

With `CCn1cc(-c2ncnc3cc(OC)c(NC(=O)C4(C(F)(F)F)CC4)nc23)c(-c2ccccc2)n1` [Example 371, N-(4-(1-ethyl-3-phenyl-1H-pyrazol-4-yl)-7-methoxypyrido[3,2-d]pyrimidin-6-yl)-1-(trifluoromethyl)cyclopropane-1-carboxamide], the results for the IC50 in assay [1], in assay [2] and in assay [3] were 0.9 nM, 1.4 nM and 0.8 nM, respectively.

For the compound `COc1cc2ncnc(-c3cn(C)nc3-c3ccccc3)c2cc1NC(=O)C1CC(F)(F)C1` [Example 346, 3,3-difluoro-N-(7-methoxy-4-(1-methyl-3-phenyl-1H-pyrazol-4-yl)quinazolin-6-yl)cyclobutane-1-carboxamide], the IC50 in assay [1] was 1.3 nM; in assay [2] it was 2.1 nM; in assay [3], 0.9 nM.

For `CCn1cc(-c2ncnc3cc(OC)c(N4CCOCC4)cc23)c(-c2ccc(F)cc2)n1` [Example 171, 4-(4-(1-ethyl-3-(4-fluorophenyl)-1H-pyrazol-4-yl)-7-methoxyquinazolin-6-yl)morpholine], the IC50 in assay [1] stood at 2.9 nM; in assay [2], 5.2 nM; in assay [3], 4.8 nM.

`CC(C)Oc1cc2ncnc(-c3cn(C)nc3-c3ccccc3)c2cc1[C@@H](C)O` (single isomer, unassigned) [Example 114, (R)-1-(7-isopropoxy-4-(1-methyl-3-phenyl-1H-pyrazol-4-yl)quinazolin-6-yl)ethan-1-ol or (S)-1-(7-isopropoxy-4-(1-methyl-3-phenyl-1H-pyrazol-4-yl)quinazolin-6-yl)ethan-1-ol]: the IC50 in assay [1] stood at 2.3 nM; in assay [2], 2.9 nM; in assay [3], 28.9 nM.

For the compound `COc1cc2ncnc(-c3cn(C)nc3-c3ccccc3)c2cc1C(C)(C)O` [Example 121, 2-(7-methoxy-4-(1-methyl-3-phenyl-1H-pyrazol-4-yl)quinazolin-6-yl) propan-2-ol], the results for the IC50 in assay [1], in assay [2] and in assay [3] were 2.7 nM, 7.6 nM and 13.8 nM, respectively.

On to `COc1cc2ncnc(-c3cn(C)nc3-c3ccccc3)c2cc1NC(=O)c1cnn2c1CCCC2` [Example 226, N-(7-methoxy-4-(1-methyl-3-phenyl-1H-pyrazol-4-yl)quinazolin-6-yl)-4,5,6,7-tetrahydropyrazolo[1,5-a]pyridine-3-carboxamide], for which the IC50 in assay [1] is 1 nM; in assay [2], 1.6 nM; in assay [3], 1.4 nM.

Take `COc1cc2ncnc(-c3cn(C)nc3-c3ccccc3)c2cc1N1CCC[C@H](O)C1` [Example 164, (S)-1-(7-methoxy-4-(1-methyl-3-phenyl-1H-pyrazol-4-yl)quinazolin-6-yl) piperidin-3-ol]: the IC50 in assay [1] was 1.7 nM; in assay [2], 2.9 nM; in assay [3], 6.4 nM.

With `COc1cc2ncnc(-c3cn(CC(F)F)nc3-c3ccccc3)c2cc1O[C@@H]1CCN(C)C[C@H]1F` [Example 3, 4-(1-(2,2-difluoroethyl)-3-phenyl-1H-pyrazol-4-yl)-6-(((3R,4R)-3-fluoro-1-methylpiperidin-4-yl)oxy)-7-methoxyquinazoline], the IC50 was found to be 1.5 nM in assay [1], 2.4 nM in assay [2] and 0.3 nM in assay [3].
